Source: paper PMC4385927 (Cell Death & Disease, 2015)
Read-outs that look alike come from different tables or passages of the source.

Experiments:
[1] = tested on: AR42j rat pancreatic acinar cells; format: cell-based
[2] = tested on: CHO cells expressing a luciferase reporter construct under control of the CHOP promoter; assay: CHOP::luciferase assay; format: cell-based; details: 5 μg/ml tunicamycin 6 h; ISRIB 1 μM, GSK2606414 20 μM; n=9
Description: AR42j cells were cultured in DMEM supplemented with 10% Fetal calf serum (FetalClone II, Thermo Scientific, Loughborough, UK), 2 mM l-glutamine, 1 × Penicillin/Streptomycin and 1 × non-essential amino-acid solution and were maintained at 37 °C with 5% CO2. CHO-KI CHOP::luciferase cells were cultured in DMEM/F12(Ham) (Gibco, Paisley, UK) supplemented with 10% Fetal calf serum, 2 mM L-glutamine and 1 × Penicillin/Streptomycin, and were maintained at 37 °C with 5% CO2.
CHO::KI cells stably transfected with a CHOP::luciferase reporter[27] were plated at a density of 1 × 10^5 per well in a six-well plate and left to grow overnight. Cells were treated for 6 h with 5 μg/ml tunicamycin or vehicle only (100% DMSO) and then extracted using the Steady-Glo luciferase assay system (Promega) before being quantified using the Glomax 96 microplate luminometer (Promega). ISRIB and GSK2606414 were incubated with 5 μg/ml tunicamycin for 6 h at 1 or 20 μM, respectively, before assaying as above.

[3] = mouse, in vivo
[4] = tested on: global protein synthesis rates; details: mouse; cited from earlier work
[5] = cited from earlier work
[6] = Plasma and brain concentration of trans-ISRIB by LC-MS/MS after single intraperitoneal injection; format: in vivo; details: wild-type mice; for Brain mean ±S.D. / Plasma mean ±S.D.: n=3
Description: We synthesized ISRIB as described,[22] and confirmed penetration of the blood–brain barrier and measured mean brain:plasma ratios at various doses in wild-type mice. Intra-peritoneal administration of 0.25 mg/kg of trans-ISRIB (henceforth termed simply ISRIB), as used by Sidrauski et al.[22] to enhance memory in mice, gave a favorable pharmacokinetic profile (Table 1), so this dose was used for treatment.
Blood and brain tissue were collected 8 or 24 h after dosing from mice treated with one doses of 0.25, 2.5 or 5 mg/kg trans-ISRIB, or vehicle. Blood plasma (up 0.2 ml, exact volume measured) was diluted with water to 0.2 ml and extracted with 0.4 ml of chloroform/methanol 2 : 1. After vortex mixing (10 min) and centrifugation (10 000 g, 10 min), the lower layer was dried with vacuum centrifugation and reconstituted in 50 μl of methanol. Brain tissue (one complete half, about 0.25 g weighed exactly) was homogenized in 0.5 ml of chloroform/methanol 2 : 1 and further processed exactly as the plasma samples. ISRIB quantitative analysis (using external standards) was performed by LC-MS/MS using a 4000 QTRAP mass spectrometer (Applied Biosystems, Foster City, CA, USA) equipped with a turbo ion source and LC series 10 AD VP (Shimadzu). The mobile phase was a water/acetonitrile gradient modified with 0.1% formic acid using a Agilent Poroshell 120 SB-C18 2.1 × 50 mm^2 (2.7 μm), which was maintained at 40 °C. LC-MS/MS multiple reaction monitoring used a precursor ion of mass/charge ratio (m/z) 452 and a product ion of m/z 265 in positive electrospray ionization mode for trans-ISRIB. Data analysis was performed with Analyst 1.4.1 in the quantitative mode.

[7] = tested on: global protein synthesis rates; design: species or system mice; details: mouse, in vivo, ip, 0.25 mg/kg
[8] = tested on: ATF4; design: species or system mice; details: mouse, in vivo, ip, 0.25 mg/kg
[9] = tested on: eIF2α-P; design: species or system mice; details: mouse, in vivo, ip, 0.25 mg/kg
[10] = tested on: total PrP and PrP^Sc; design: species or system mice; details: mouse, in vivo
[11] = tested on: Rocky Mountain Laboratory (RML) prions; format: in vivo, mice
[12] = Solubility (statement); format: physicochemical
[13] = single i.p. dose 0.25 mg/kg, 8 h
[14] = single i.p. dose 0.25 mg/kg, 24 h
[15] = single i.p. dose 2.5 mg/kg, 8 h
[16] = single i.p. dose 2.5 mg/kg, 24 h
[17] = prion-infected mice, ISRIB 0.25 mg/kg i.p. daily from 7 w.p.i., vehicle 9/9

SMILES: Cn1cc(-c2ccc3c(c2)CCN3C(=O)Cc2cccc(C(F)(F)F)c2)c2c(N)ncnc21 [GSK2606414, 7-methyl-5-(1-{[3-(trifluoromethyl)phenyl]acetyl}-2,3-dihydro-1H-indol-5-yl)-7H-p yrrolo[2,3-d]pyrimidin-4-amine]
- protein synthesis (translation) rates restored in vitro, % of control levels ([1]; thapsigargin-treated AR42j cells, Figures 6a and b): 90%
- tunicamycin-induced CHOP induction (relative luminescence) [2]: completely inhibited
- reduction in pancreatic weight ([3]; Tg37+/-, po, 50 mg/kg): ~ 50%
- blood glucose levels [3]: mildly but significantly elevated
- pancreas histology (H&E sections) [3]: extensive destruction of exocrine acinar pancreatic tissue
- recovery of protein synthesis rates in vivo [4]: ~ 100%
- toxicity of GSK2606414 treatment in prion-diseased mice [5]: weight loss and mild hyperglycemia

SMILES: O=C(COc1ccc(Cl)cc1)N[C@H]1CC[C@H](NC(=O)COc2ccc(Cl)cc2)CC1 [ISRIB]
- Mean ratio brain: plasma [6, 13]: 0.54
- Brain mean ±S.D. [6, 13]: 186.9 ± 46.8 ng/g
- Plasma mean ±S.D. [6, 13]: 345.3 ± 44.7 ng/mL
- Mean ratio brain: plasma [6, 14]: 1.62
- Brain mean ±S.D. [6, 14]: 16.0 ± 1.6 ng/g
- Plasma mean ±S.D. [6, 14]: 9.9 ± 1.0 ng/mL
- Mean ratio brain: plasma [6, 15]: 0.35
- Brain mean ±S.D. [6, 15]: 254.6 ± 70.3 ng/g
- Plasma mean ±S.D. [6, 15]: 721.6 ± 60.1 ng/mL
- Mean ratio brain: plasma [6, 16]: 0.9
- Brain mean ±S.D. [6, 16]: 39.7 ± 12.6 ng/g
- Plasma mean ±S.D. [6, 16]: 44.1 ± 11.6 ng/mL
- Mean ratio brain: plasma ([6]; single i.p. dose 5 mg/kg, 8 h): 0.43
- Brain mean ±S.D. ([6]; single i.p. dose 5 mg/kg, 8 h): 160.3 ± 17.6 ng/g
- Plasma mean ±S.D. ([6]; single i.p. dose 5 mg/kg, 8 h): 369.7 ± 114.4 ng/mL
- Mean ratio brain: plasma ([6]; single i.p. dose 5 mg/kg, 24 h): 0.91
- Brain mean ±S.D. ([6]; single i.p. dose 5 mg/kg, 24 h): 64.6 ± 9.2 ng/g
- Plasma mean ±S.D. ([6]; single i.p. dose 5 mg/kg, 24 h): 70.9 ± 30.6 ng/mL
- global protein synthesis rates, % of levels seen in uninfected controls [7]: ~ 70%
- levels of ATF4 (hippocampus) [8]: reduced levels of ATF4 markedly
- eIF2α-P levels (hippocampus) [9]: unchanged
- levels of total PrP and PrP^Sc [10]: does not affect
- animals that developed confirmatory signs of prion disease by 12 w.p.i. ([11]; clinical observation, vehicle 9/9): 0/12
- survival in prion-infected mice ([11]; n=12, vehicle 84±3 days (n=9), killed because of loss of 20% of body weight): 96±4 days post infection
- Confirmatory signs: Dragging of limbs (front/hind) (mice affected/total) ([11]; prion-infected mice, ISRIB 0.25 mg/kg i.p. daily from 7 w.p.i., vehicle 2/9): 0/12
- Confirmatory signs: Sustained hunched posture (mice affected/total) ([11]; prion-infected mice, ISRIB 0.25 mg/kg i.p. daily from 7 w.p.i., vehicle 3/9): 0/12
- Early indicator signs: Unsustained hunched posture (mice affected/total) ([11]; prion-infected mice, ISRIB 0.25 mg/kg i.p. daily from 7 w.p.i., vehicle 4/9): 0/12
- Confirmatory signs: Impairment of righting reflex (mice affected/total) ([11]; prion-infected mice, ISRIB 0.25 mg/kg i.p. daily from 7 w.p.i., vehicle 5/9): 0/12
- Early indicator signs: Hind limb clasping (mice affected/total) ([11]; prion-infected mice, ISRIB 0.25 mg/kg i.p. daily from 7 w.p.i., vehicle 8/9): 7/12
- Early indicator signs: Mild loss of coordination (mice affected/total) [11, 17]: 7/12
- Early indicator signs: Rigid tail (mice affected/total) [11, 17]: 7/12
- Scrapie incubation: Number of animals succumbing to prion disease [11, 17]: 0/12
- neuronal loss in the hippocampus (neuropathological examination, H&E) ([11]; prion-infected mice, ISRIB vs vehicle): prevented neuronal loss
- protein synthesis (translation) rates restored in vitro, % of control levels [1]: ~ 50%
- tunicamycin-induced CHOP induction (relative luminescence) [2]: only partially reduced
- solubility [12]: high insolubility
- blood glucose levels [3]: unaffected
- loss of body weight at which animals had to be killed [3]: 20%
- pancreas histology (H&E sections) [3]: histologically normal
- pancreatic weights [3]: normal
